For the assay, the target named is T1, cholesterol ester transfer protein (CETP) (Oryctolagus cuniculus, UniProt P22687).
T1 sequence (P22687 2-497): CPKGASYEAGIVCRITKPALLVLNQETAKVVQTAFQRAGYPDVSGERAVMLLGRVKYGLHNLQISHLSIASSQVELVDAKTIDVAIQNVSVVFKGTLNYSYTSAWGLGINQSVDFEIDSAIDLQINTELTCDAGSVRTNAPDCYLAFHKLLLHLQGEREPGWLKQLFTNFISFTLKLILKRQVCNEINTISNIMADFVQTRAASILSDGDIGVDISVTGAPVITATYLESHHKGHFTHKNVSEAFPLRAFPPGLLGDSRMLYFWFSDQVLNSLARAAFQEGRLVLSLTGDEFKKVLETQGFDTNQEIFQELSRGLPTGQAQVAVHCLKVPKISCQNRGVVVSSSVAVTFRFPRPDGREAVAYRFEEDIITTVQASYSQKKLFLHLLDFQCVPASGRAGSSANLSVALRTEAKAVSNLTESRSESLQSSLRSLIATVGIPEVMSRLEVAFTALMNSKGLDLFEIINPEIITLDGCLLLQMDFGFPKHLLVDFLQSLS
The assay is described as follows: fluorescent neutral lipid transfer assay (BioVision CETP Inhibitor Screening Kit) with rabbit serum as CETP source. The format is biochemical.

As usually defined, the IC50 is the midpoint of a concentration-inhibition curve. Read a low IC50 as greater potency in that assay. In turn, `C=C[C@@H]1C(=C)CC[C@H]2[C@H]1CC[C@@H]1[C@]2(C)C[C@@H](O)C[C@]1(C)C(=O)O` [compound 1, engleromycenolic acid A] showed an IC50 of 7.55 µM.

(Values after article PMC4402584, “New Diterpenes from Cultures of the Fungus Engleromyces goetzii and Their CETP Inhibitory Activity” (Natural Products and Bioprospecting, 2015).)
